Measurements from ChEMBL document CHEMBL1125071, “Quinazoline antifolate thymidylate synthase inhibitors: alkyl, substituted alkyl, and aryl substituents in the C2 position” (J Med Chem, 1990).
≈ marks a conversion by molar mass, not a printed value.

How the values were obtained:
[1] = biological target: Thymidylate synthase (Mus musculus, UniProt P07607); assay: Concentration required for in vitro inhibition of thymidylate synthase
[2] = tested on: L1210; assay: Concentration required to inhibit 50 percent growth of L1210 mouse leukemia cells; format: functional, cell-based
[3] = Solubility in […] M aqueous NaH2PO4 buffer at pH 7.0 and 25 degree C; format: physicochemical; settings: 0.92 M aqueous NaH2PO4 buffer
[4] = pKa of nitrogen -3(N3) of the compound; format: physicochemical
[5] = pKa of nitrogen -1(N1) of the compound; too low to measure accurately; format: physicochemical
[6] = pKa of nitrogen -1(N1) of the compound; format: physicochemical

Thymidylate synthase, sequence (P07607 whole entry): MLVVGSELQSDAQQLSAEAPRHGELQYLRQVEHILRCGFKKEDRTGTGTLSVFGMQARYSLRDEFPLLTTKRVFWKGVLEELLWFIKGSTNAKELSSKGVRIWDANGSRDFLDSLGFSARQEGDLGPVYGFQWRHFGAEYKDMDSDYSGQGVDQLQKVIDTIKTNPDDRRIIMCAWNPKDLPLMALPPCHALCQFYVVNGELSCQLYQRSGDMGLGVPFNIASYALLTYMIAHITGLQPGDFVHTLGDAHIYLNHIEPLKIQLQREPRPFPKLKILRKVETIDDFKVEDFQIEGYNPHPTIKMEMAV

Structure (SMILES)	IC50 [1]	IC50 [2]	other results
CC(=O)CN(Cc1ccc2nc(C)[nH]c(=O)c2c1)c1ccc(C(=O)N[C@@H](CCC(=O)O)C(=O)O)cc1	25000 nM	1200 nM	
C#CCN(Cc1ccc2nc(N)[nH]c(=O)c2c1)c1ccc(C(=O)N[C@@H](CCC(=O)O)C(=O)O)cc1		3400 nM	solubility [3]: 70 µg/mL (≈ 0.147 mM)
Cc1nc2ccc(CN(CCO)c3ccc(C(=O)N[C@@H](CCC(=O)O)C(=O)O)cc3)cc2c(=O)[nH]1	500 nM	240 nM	
Cc1ccc2nc(CF)nc(O)c2c1			pKa [4]: 8.5; pKa [5]: < 2
C#CCN(Cc1ccc2nc[nH]c(=O)c2c1)c1ccc(C(=O)N[C@@H](CCC(=O)O)C(=O)O)cc1		400 nM	
C#CCN(Cc1ccc2nc(C(C)C)[nH]c(=O)c2c1)c1ccc(C(=O)N[C@@H](CCC(=O)O)C(=O)O)cc1		48000 nM	
O=C(O)CC[C@H](NC(=O)c1ccc(N(CCO)Cc2ccc3nc(CO)[nH]c(=O)c3c2)cc1)C(=O)O		14500 nM	
C#CCN(Cc1ccc2nc(C(F)F)nc(O)c2c1)c1ccc(C(=O)N[C@@H](CCC(=O)O)C(=O)O)cc1		24000 nM	
Cc1nc2ccc(CN(CCCO)c3ccc(C(=O)N[C@@H](CCC(=O)O)C(=O)O)cc3)cc2c(=O)[nH]1	540 nM	1240 nM	
Cc1nc2ccc(CN(CCF)c3ccc(C(=O)N[C@@H](CCC(=O)O)C(=O)O)cc3)cc2c(=O)[nH]1	240 nM	400 nM	
C#CCN(Cc1ccc2nc(-c3ccccc3)[nH]c(=O)c2c1)c1ccc(C(=O)N[C@@H](CCC(=O)O)C(=O)O)cc1		> 100000 nM	
C#CCN(Cc1ccc2nc(CNC(C)=O)[nH]c(=O)c2c1)c1ccc(C(=O)N[C@@H](CCC(=O)O)C(=O)O)cc1		125000 nM	
O=C(O)CC[C@H](NC(=O)c1ccc(N(CCF)Cc2ccc3nc(CF)[nH]c(=O)c3c2)cc1)C(=O)O		1200 nM	
CN(Cc1ccc2nc(CF)[nH]c(=O)c2c1)c1ccc(C(=O)N[C@@H](CCC(=O)O)C(=O)O)cc1	2920 nM	3 nM	
C#CCN(Cc1ccc2nc(CF)[nH]c(=O)c2c1)c1ccc(C(=O)N[C@@H](CCC(=O)O)C(=O)O)cc1		370 nM	
CCN(Cc1ccc2nc(C)[nH]c(=O)c2c1)c1ccc(C(=O)N[C@@H](CCC(=O)O)C(=O)O)cc1	170 nM	360 nM	
C#CCN(Cc1ccc2nc(C)[nH]c(=O)c2c1)c1ccc(C(=O)N[C@@H](CCC(=O)O)C(=O)O)cc1		90 nM	solubility [3]: 3200 µg/mL (≈ 6.72 mM)
Cc1nc2ccc(CN(CCBr)c3ccc(C(=O)N[C@@H](CCC(=O)O)C(=O)O)cc3)cc2c(=O)[nH]1	1300 nM	820 nM	
Cc1ccc2nc(C(F)(F)F)nc(O)c2c1			pKa [4]: 5.9; pKa [5]: < 2

Structure (SMILES)	IC50 [1]	IC50 [2]	other results
Cc1ccc2nc(C)nc(O)c2c1			pKa [4]: 10.2; pKa [6]: 3.5
C#CCN(Cc1ccc2nc(C(F)(F)F)[nH]c(=O)c2c1)c1ccc(C(=O)N[C@@H](CCC(=O)O)C(=O)O)cc1		> 100000 nM	
COCCCN(Cc1ccc2nc(C)[nH]c(=O)c2c1)c1ccc(C(=O)N[C@@H](CCC(=O)O)C(=O)O)cc1	12900 nM	> 100000 nM	
CCN(Cc1ccc2nc(CO)[nH]c(=O)c2c1)c1ccc(C(=O)N[C@@H](CCC(=O)O)C(=O)O)cc1		16000 nM	
Cc1nc2ccc(CNc3ccc(C(=O)N[C@@H](CCC(=O)O)C(=O)O)cc3)cc2c(=O)[nH]1	4500 nM	70 nM	
C#CCN(Cc1ccc2nc(CSc3ncccn3)[nH]c(=O)c2c1)c1ccc(C(=O)N[C@@H](CCC(=O)O)C(=O)O)cc1		100000 nM	
COCCN(Cc1ccc2nc(C)[nH]c(=O)c2c1)c1ccc(C(=O)N[C@@H](CCC(=O)O)C(=O)O)cc1	16300 nM	40000 nM	
CCN(Cc1ccc2nc(CF)[nH]c(=O)c2c1)c1ccc(C(=O)N[C@@H](CCC(=O)O)C(=O)O)cc1		700 nM	
Cc1nc2ccc(CN(C)c3ccc(C(=O)N[C@@H](CCC(=O)O)C(=O)O)cc3)cc2c(=O)[nH]1	300 nM	110 nM	
CN(Cc1ccc2nc(CO)[nH]c(=O)c2c1)c1ccc(C(=O)N[C@@H](CCC(=O)O)C(=O)O)cc1		13000 nM	
O=C(O)CC[C@H](NC(=O)c1ccc(N(CCF)Cc2ccc3nc(CO)[nH]c(=O)c3c2)cc1)C(=O)O		20000 nM	
CCc1nc2ccc(CNc3ccc(C(=O)N[C@@H](CCC(=O)O)C(=O)O)cc3)cc2c(=O)[nH]1	20000 nM	3200 nM	
Cc1ccc2nc(C(F)F)nc(O)c2c1			pKa [4]: 7.2; pKa [5]: < 2
C=CCN(Cc1ccc2nc(CO)[nH]c(=O)c2c1)c1ccc(C(=O)N[C@@H](CCC(=O)O)C(=O)O)cc1		6600 nM	
C=CCN(Cc1ccc2nc(C)[nH]c(=O)c2c1)c1ccc(C(=O)N[C@@H](CCC(=O)O)C(=O)O)cc1	480 nM	170 nM	
C#CCN(Cc1ccc2nc(CC)[nH]c(=O)c2c1)c1ccc(C(=O)N[C@@H](CCC(=O)O)C(=O)O)cc1		2500 nM	
Cc1nc2ccc(CN(CCS)c3ccc(C(=O)N[C@@H](CCC(=O)O)C(=O)O)cc3)cc2c(=O)[nH]1	1760 nM	> 100000 nM	
Cc1ccc2nc(N)nc(O)c2c1			pKa [4]: 9.4; pKa [6]: 4.2
